No end group written: not given here.
Columns and labels:
[1] = test system: isolated segments of guinea pig ileum; assay: Substance P-mediated exaggerated peristalsis in organ baths (peristaltic reflex model); assay type: cell-based
Description: Substance P—mediated exaggerated peristalsis is studied in Mayflower organ baths using isolated segments of guinea pig ileum (Holzer et al., J. Pharmacol. Exp. Ther. 1995; 274: 322-328). The lumen of ileal segments is perfused with Krebs-Henseleit solution, and intraluminal pressures are continuously recorded. […] Any wave of peristaltic contractions results in a spike-like increase in intraluminal pressure and causes a partial emptying of fluid from the segment. Pressure thresholds triggering peristaltic contractions are used to quantify the effects of the compound of formula II.

conscious guinea pigs [2] = assay: restraint stress-induced visceral hypersensitivity, visceromotor response to colorectal distension; assay type: in vivo, guinea pig; settings: restraint stress-induced colonic hypersensitivity, p<0.05 ANOVA post-hoc Dunnett's test
Experimental: (§1) In conscious guinea pigs, two experimental paradigms are applied to induce visceral hypersensitivity, i) restraint stress (immobilization of the animals in a tube) and ii) colonic tissue irritation (colonic instillation of acetic acid, 0.6% in saline, 1.5 ml, 2 cm proximal to the anus). Colorectal distension is performed by inflating a balloon to a net pressure (at the colonic wall) of 20 mmHg (26.7 mbar) for 10 minutes before and following induction of visceral hypersensitivity. During the distension period the visceromotor response, i.e. the number and quality of abdominal contractions (body arching and lifting of pelvic structures) are recorded and quantified in a blinded fashion (Al-Chaer et al., Gastroenterology 2000; 119: 1276-1285). Following the performance of baseline colorectal distension protocols, vehicle or the compound of formula II (3 and 10 mg/kg) are dosed orally one hour prior to the second colorectal distensions, which are done after the induction of visceral hypersensitivity. The effects of vehicle and the compound of formula II are assessed in 6-8 animals. […] The compound of formula II reverses the exaggerated behavioural pain responses upon colorectal balloon distensions in both restraint stress-induced and tissue irritation-induced colonic hypersensitivity.

conscious guinea pigs [3] = assay: colonic tissue irritation (acetic acid)-induced visceral hypersensitivity, visceromotor response to colorectal distension; assay type: in vivo, guinea pig; settings: p<0.05 ANOVA post-hoc Dunnett's test
Experimental: as §1

[4] = test system: submucosalmucosa preparations of guinea pig colon; assay: epithelial secretion (electrogenic chloride secretion), Ussing chamber short circuit currents; assay type: cell-based
Experimental: Epithelial secretion is tested in submucosalmucosa preparations of guinea pig colon. Using Ussing chamber techniques (Frieling et al., Naunyn Schmiedebergs Arch. Pharmacol. 1999; 359: 71-79) short circuit currents are recorded, and epithelial secretion (electrogenic chloride secretion) is stimulated via cumulative treatment with substance P (0.1 nM up to 10 μM); it triggers secretion (increases in short circuit currents) in a concentration-dependent fashion (pD2=7.50 ).

[5] = 3 mg/kg p.o. one hour prior to distension
[6] = 10 mg/kg p.o. one hour prior to distension

Molecule	apparent pA2, competitive inhibition of substance P-evoked exaggerated peristalsis ([1]; 30 nM)	apparent pA2, competitive inhibition of substance P-evoked exaggerated peristalsis ([1]; 100 nM)	reversal of exaggerated behavioural pain responses upon colorectal balloon distension (conscious guinea pigs [2]; [5])	reversal of exaggerated behavioural pain responses upon colorectal balloon distension (conscious guinea pigs [2]; [6])	reversal of exaggerated behavioural pain responses upon colorectal balloon distension (conscious guinea pigs [3]; [5])	reversal of exaggerated behavioural pain responses upon colorectal balloon distension (conscious guinea pigs [3]; [6])	pA2 (Schild plot analysis), competitive inhibition of substance P-induced electrogenic chloride secretion ([4]; 30 nM, 100 nM and 300 nM)	pD2, lowering of pressure thresholds triggering peristaltic contractions ([1]; cumulative application 1 nM up to 30 μM)	pD2, stimulation of secretion (increases in short circuit currents) ([4]; cumulative treatment 0.1 nM up to 10 μM)
CN(C(=O)c1cc(C(F)(F)F)cc(C(F)(F)F)c1)[C@@H](/C=C/C(=O)N[C@@H]1CCCCNC1=O)Cc1ccc(Cl)c(Cl)c1 [compound of formula II, (4R)-4-[N′-methyl-N′-(3,5-bistrifluoromethylbenzoyl)amino]-4-(3,4-dichlorobenzyl)-but-2-enoic acid N-[(R)-epsilon-caprolactam-3-yl]-amide]	7.35	7.23	statistically significant	statistically significant	statistically significant	statistically significant	7.94		
substance P: agonist applied cumulatively to evoke exaggerated peristalsis and epithelial chloride secretion (RPKPQQFFGLM; ends and bridges not checked; UniProt P20366 58-68, looked up) [reference compound]								7.20	7.50

Source: patent publication US20050203164A1, “Use of acylaminoalkenylene-amide derivatives in functional motility disorders of the viscera” (priority 2002, published 2005)
